From patent US8658697B2 (priority 2004, dated 2014)

These compounds were tested on Tacaribe virus (TRVL 11573) (assay: microbe, parasite or virus in culture). Conditions: Mammarenavirus tacaribeense, Vero, read-out: Tacaribe EC50.
Format: cell-based

| Compound | EC50 [µM] |
| --- | --- |
| CC(NC(=O)NNS(=O)(=O)c1cc(F)ccc1F)(C(F)(F)F)C(F)(F)F [Example 42, N-2-(1,1,1,3,3,3-Hexafluoro-2-methylpropyl)-2-[(2,5-difluorophenyl)sulfonyl]hydrazine-1-carboxamide] | 1 to 5 |
| Cc1ccc(S(=O)(=O)N(C)NC(=O)NC(C)(C(F)(F)F)C(F)(F)F)cc1 [Example 43, N-2-(1,1,1,3,3,3-Hexafluoro-2-methylpropyl)-2-[(4-methylphenyl)sulfonyl]-2-methylhydrazine-1-carboxamide] | 1 to 5 |
| CC(NC(=O)NNS(=O)(=O)c1c(Cl)cccc1Cl)(C(F)(F)F)C(F)(F)F [Example 44, N-2-(1,1,1,3,3,3-Hexafluoro-2-methylpropyl)-2-[(2,6-dichlorophenyl)sulfonyl]hydrazine-1-carboxamide] | 1 to 5 |
| CC(NC(=O)NNS(=O)(=O)c1c(C(F)(F)F)cccc1C(F)(F)F)(C(F)(F)F)C(F)(F)F [Example 45, N-2-(1,1,1,3,3,3-Hexafluoro-2-methylpropyl)-2-[(2,6-ditrifluoromethylphenyl)sulfonyl] hydrazine-1-carboxamide] | 1 to 5 |
| Cc1ccc(S(=O)(=O)NNC(=O)N(C)C(C)(C(F)(F)F)C(F)(F)F)cc1 [Example 46, N-2-(1,1,1,3,3,3-Hexafluoro-2-methylpropyl)-2-[(4-methylphenyl)sulfonyl]hydrazine-1-methylcarboxamide] | > 5 |
| Cc1noc(C)c1S(=O)(=O)NNC(=O)NC(C)(C(F)(F)F)C(F)(F)F [Example 47, N-2-(1,1,1,3,3,3-Hexafluoro-2-methylpropyl)-2-[(3,5-dimethylisoxazol-5-yl)sulfonyl]hydrazine-1-carboxamide] | > 5 |
| CC(NC(=O)NNS(=O)(=O)c1ccc([N+](=O)[O-])cc1)(C(F)(F)F)C(F)(F)F [Example 48, N-2-(1,1,1,3,3,3-Hexafluoro-2-methylpropyl)-2-[(4-nitrophenyl)sulfonyl]hydrazine-1-carboxamide] | > 5 |
| Cn1cnc(S(=O)(=O)NNC(=O)NC(C)(C(F)(F)F)C(F)(F)F)c1 [Example 49, N-2-(1,1,1,3,3,3-Hexafluoro-2-methylpropyl)-2-[(1-methylimidazol-4-yl)sulfonyl]hydrazine-1-carboxamide] | > 5 |
| CC(NC(=O)NNS(C)(=O)=O)(C(F)(F)F)C(F)(F)F [Example 50, N-2-(1,1,1,3,3,3-Hexafluoro-2-methylpropyl)-2-[methylsulfonyl]hydrazine-1-carboxamide] | > 5 |
| CC(NC(=O)N1CCN(c2ccccc2)CC1)(C(F)(F)F)C(F)(F)F [Example 51, 4-Phenylpiperazine-1-(2,2,2-trifluoro-1-methyl-1-trifluoromethylethyl)-carboxamide] | < 0.5 |
| CC(NC(=O)N1CCOCC1)(C(F)(F)F)C(F)(F)F [Example 52, 4-Morpholino-1-(2,2,2-trifluoro-1-methyl-1-trifluoromethylethyl)-carboxamide] | < 0.5 |
| CC(=O)c1ccccc1NC(=O)NC(C)(C(F)(F)F)C(F)(F)F [Example 53, 1-(2-Acetylphenyl)-3-(2,2,2-trifluoro-1-methyl-1-trifluoromethylethyl)-urea] | 0.5 to 1 |
| CC(NC(=O)N1CCCCC1)(C(F)(F)F)C(F)(F)F [Example 54, 1-Piperidino-1-(2,2,2-trifluoro-1-methyl-1-trifluoromethylethyl)-carboxamide] | 0.5 to 1 |
| COc1cc(NC(=O)NC(C)(C(F)(F)F)C(F)(F)F)cc(OC)c1OC [Example 55, 1-(2,2,2-trifluoro-1-methyl-1-trifluoromethylethyl)-3-(3,4,5-trimethoxyphenyl)-urea] | 0.5 to 1 |
| CC(NC(=O)Nc1ccc(C(F)(F)F)cc1)(C(F)(F)F)C(F)(F)F [Example 56, 1-(4-Trifluoromethylphenyl)-3-(2,2,2-trifluoro-1-methyl-1-trifluoromethylethyl)-urea] | 0.5 to 1 |
| CN1CCN(C(=O)NC(C)(C(F)(F)F)C(F)(F)F)CC1 [Example 57, 4-Methylpiperazine-1-(2,2,2 trifluoro-1-methyl-1-trifluoromethylethyl)-carboxamide] | 1 to 5 |
| CC(NC(=O)Nc1cccc2ccccc12)(C(F)(F)F)C(F)(F)F [Example 58, 1-Naphthalen-1-yl-3-(2,2,2-trifluoro-1-methyl-1-trifluoromethylethyl)-urea] | 1 to 5 |
| CC(NC(=O)N1CCC(c2ccccc2)CC1)(C(F)(F)F)C(F)(F)F [Example 60, 4-Phenylpiperidin-1-yl-1-(2,2,2-trifluoro-1-methyl-1-trifluoromethylethyl)-carboxamide] | 1 to 5 |
| CC(NC(=O)Nc1ccccc1-c1ccccc1)(C(F)(F)F)C(F)(F)F [Example 61] | 1 to 5 |
| CC(NC(=O)Nc1c(F)cccc1F)(C(F)(F)F)C(F)(F)F [Example 62, 1-(2,6-Difluorophenyl)-3-(2,2,2-trifluoro-1-methyl-1-trifluoromethylethyl)-urea] | 1 to 5 |
| CC(NC(=O)Nc1ccccc1C(N)=O)(C(F)(F)F)C(F)(F)F [Example 63, 2-[3-(1,1-Bis-trifluoromethylethyl)-ureido]benzamide] | 1 to 5 |
| CC(NC(=O)Nc1c(F)cccc1Cl)(C(F)(F)F)C(F)(F)F [Example 64, 1-(2-Chloro-6-fluorophenyl)-3-(2,2,2-trifluoro-1-methyl-1-trifluoromethylethyl)-urea] | 1 to 5 |

| Compound | EC50 [µM] |
| --- | --- |
| CC(NC(=O)Nc1cccc(C(F)(F)F)c1)(C(F)(F)F)C(F)(F)F [Example 65, 1-(3-Trifluoromethylphenyl)-3-(2,2,2-trifluoro-1-methyl-1-trifluoromethylethyl)-urea] | 1 to 5 |
| CC(NC(=O)Nc1ccccc1S(N)(=O)=O)(C(F)(F)F)C(F)(F)F [Example 66, 2-[3-(1,1-Bis-trifluoromethylethyl)-ureido]benzenesulfonamide] | 1 to 5 |
| CC(NC(=O)Nc1cccc2c1OC(F)(F)C(F)(F)O2)(C(F)(F)F)C(F)(F)F [Example 67, 1-(2,2,3,3-Tetrafluoro-2,3-dihydrobenzo[1,4]dioxin-5-yl)-3-(2,2,2-trifluoro-1-methyl-1-trifluoromethylethyl)-urea] | 1 to 5 |
| CC(NC(=O)Nc1cccc(OC(F)(F)F)c1)(C(F)(F)F)C(F)(F)F [Example 68, 1-(3-Trifluoromethoxyphenyl)-3-(2,2,2-trifluoro-1-methyl-1-trifluoromethylethyl)-urea] | 1 to 5 |
| CC(NC(=O)Nc1ccc(OC(F)(F)F)cc1)(C(F)(F)F)C(F)(F)F [Example 69, 1-(4-Trifluoromethoxyphenyl)-3-(2,2,2-trifluoro-1-methyl-1-trifluoromethylethyl)-urea] | 1 to 5 |
| CC1CCN(C(=O)NC(C)(C(F)(F)F)C(F)(F)F)CC1 [Example 70, 4-Methyl-1-piperidine-1-(2,2,2-trifluoro-1-methyl-1-trifluoromethylethyl)-carboxamide] | 1 to 5 |
| CC(NC(=O)Nc1ccc2ccccc2c1)(C(F)(F)F)C(F)(F)F [Example 71, 1-Naphthalen-2-yl-3-(2,2,2-trifluoro-1-methyl-1-trifluoromethylethyl)-urea] | 1 to 5 |
| CC(NC(=O)Nc1ccccc1F)(C(F)(F)F)C(F)(F)F [Example 72, 1-(2-fluorophenyl)-3-(2,2,2-trifluoro-1-methyl-1-trifluoromethylethyl)-urea] | 1 to 5 |
| COc1cccc(OC)c1NC(=O)NC(C)(C(F)(F)F)C(F)(F)F [Example 73, l-(2,6-Dimethoxyphenyl)-3-(2,2,2-trifluoro-1-methyl-1-trifluoromethylethyl)-urea] | 1 to 5 |
| CC(NC(=O)Nc1ccc(C(=O)O)cc1OC(F)(F)F)(C(F)(F)F)C(F)(F)F [Example 74, 3-Trifluormethoxy-4-[3-(1,1-bis-trifluoromethylethyl)-ureido]benzoic acid] | 1 to 5 |
| CC(NC(=O)Nc1ccccc1)(C(F)(F)F)C(F)(F)F [Example 75, 1-Phenyl-3-(2,2,2-trifluoro-1-methyl-1-trifluoromethylethyl)-urea] | 1 to 5 |
| CC(NC(=O)Nc1cccc(C#N)c1)(C(F)(F)F)C(F)(F)F [Example 76, 1-(3-Cyanophenyl)-3-(2,2,2-trifluoro-1-methyl-1-trifluoromethylethyl)-urea] | 1 to 5 |
| COc1cccc(NC(=O)NC(C)(C(F)(F)F)C(F)(F)F)c1 [Example 77, 1-(3-Methoxyphenyl)-3-(2,2,2-trifluoro-1-methyl-1-trifluoromethylethyl)-urea] | 1 to 5 |
| CC(NC(=O)Nc1ccccc1OC(F)(F)C(F)F)(C(F)(F)F)C(F)(F)F [Example 78, 1-(2-(1,1,2,2-Tetrafluoroethoxy)phenyl)-3-(2,2,2-trifluoro-1-methyl-1-trifluoromethylethyl)-urea] | 1 to 5 |
| CC(NC(=O)Nc1cccc(S(N)(=O)=O)c1)(C(F)(F)F)C(F)(F)F [Example 79, 3-[3-(1,1-Bis-trifluoromethylethyl)-ureido]benzenesulfonamide] | 1 to 5 |
| CC(NC(=O)Nc1cccc(F)c1)(C(F)(F)F)C(F)(F)F [Example 80, 1-(3-fluorophenyl)-3-(2,2,2-trifluoro-1-methyl-1-trifluoromethylethyl)-urea] | 1 to 5 |
| CC(NC(=O)Nc1ccc(Br)cc1)(C(F)(F)F)C(F)(F)F [Example 81, 1-(4-Bromophenyl)-3-(2,2,2-trifluoro-1-methyl-1-trifluoromethylethyl)-urea] | 1 to 5 |
| CC(NC(=O)Nc1ccccc1C#N)(C(F)(F)F)C(F)(F)F [Example 82, 1-(2-Cyanophenyl)-3-(2,2,2-trifluoro-1-methyl-1-trifluoromethylethyl)-urea] | 1 to 5 |
| CC(NC(=O)Nc1ccc(C#N)cc1)(C(F)(F)F)C(F)(F)F [Example 83, 1-(4-Cyanophenyl)-3-(2,2,2-trifluoro-1-methyl-1-trifluoromethylethyl)-urea] | 1 to 5 |
| CC(NC(=O)Nc1cccc2c1OC(F)(F)O2)(C(F)(F)F)C(F)(F)F [Example 84, 1-(2,2-Difluorobenzo[1,3]dioxol-4-yl)-3-(2,2,2-trifluoro-1-methyl-1-trifluoromethylethyl)-urea] | 1 to 5 |
| CC(NC(=O)Nc1ccc(Cl)cc1)(C(F)(F)F)C(F)(F)F [Example 85, 1-(4-Chlorophenyl)-3-(2,2,2-trifluoro-1-methyl-1-trifluoromethylethyl)-urea] | > 5 |
